# Experimental data: the NIST ThermoML archive (doi:10.1021/je8001267)
# Numbers after ± are expanded uncertainties.
# Settings: Liquid, Closed cell (Static) method
structure (smiles),measurement,setting,value
N [ammonia],vapor or sublimation pressure,303.12 K,1166 ± 12 kPa
same,vapor or sublimation pressure,313.14 K,1553 ± 16 kPa
same,vapor or sublimation pressure,323.16 K,2030 ± 21 kPa
same,vapor or sublimation pressure,333.13 K,2609 ± 26 kPa
same,vapor or sublimation pressure,343.13 K,3305 ± 34 kPa
same,vapor or sublimation pressure,353.13 K,4132 ± 42 kPa
same,vapor or sublimation pressure,363.12 K,5105 ± 52 kPa
same,vapor or sublimation pressure,373.16 K,6243 ± 63 kPa
